Source: ChEMBL document CHEMBL1201862, “PubChem BioAssay data set” (2004)
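A five-concentration, 48-hour dose response in 96-well plates underlies each endpoint, interpolated linearly between surrounding concentrations. GI50 = concentration required for 50% inhibition of growth.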 Calls of active or inactive are those of the source. Cut-off read from the data, not from the text of the source: active = GI50 up to about 1.1 µM and inactive = higher.

Experiments:
Assay in all cases: NCI tumour cell line growth inhibition, 48 h
786-0 = test system: 786-0
CCRF-CEM = test system: CCRF-CEM
COLO 205 = test system: COLO 205
DU-145 = test system: DU-145
IGROV-1 = test system: IGROV-1
K562 = test system: K562
M14 = test system: M14
MDA-MB-435 = test system: MDA-MB-435
NCI-H522 = test system: NCI-H522
NCI/ADR-RES = test system: NCI/ADR-RES
OVCAR-4 = test system: OVCAR-4
OVCAR-5 = test system: OVCAR-5
OVCAR-8 = test system: OVCAR-8
PC-3 = test system: PC-3
RPMI-8226 = test system: RPMI-8226
SF-268 = test system: SF-268
SK-MEL-28 = test system: SK-MEL-28
SK-MEL-2 = test system: SK-MEL-2
SNB-19 = test system: SNB-19
SW-620 = test system: SW-620

Structure (SMILES)	GI50 (786-0)	GI50 (CCRF-CEM)	GI50 (COLO 205)	GI50 (DU-145)	GI50 (IGROV-1)	GI50 (K562)	GI50 (M14)	GI50 (MDA-MB-435)	GI50 (NCI-H522)	GI50 (NCI/ADR-RES)	GI50 (OVCAR-4)	GI50 (OVCAR-5)	GI50 (OVCAR-8)	GI50 (PC-3)	GI50 (RPMI-8226)	GI50 (SF-268)	GI50 (SK-MEL-28)	GI50 (SK-MEL-2)	GI50 (SNB-19)	GI50 (SW-620)
Cc1ccc(C2NC(=O)c3ccccc3N2)c(C)c1 (stereo not given)	3.97 µM (inactive)	1.63 µM (inactive)	2.11 µM (inactive)	5.71 µM (inactive)	4.62 µM (inactive)	0.378 µM (active)	2.16 µM (inactive)	0.191 µM (active)	1.88 µM (inactive)	1.34 µM (inactive)	2.68 µM (inactive)	8.43 µM (inactive)	5.28 µM (inactive)	1.66 µM (inactive)	0.807 µM (active)	10.2 µM (inactive)	6.58 µM (inactive)	1.77 µM (inactive)	3.96 µM (inactive)	1.05 µM (active)
COc1ccc(N2C(=O)C3c4[nH]c5ccccc5c4C4CCC(c5ccccc5)CC4C3C2=O)cc1 (stereo not given)	7.76 µM (inactive)	6 µM (inactive)	> 40.4 µM (inactive)	57.3 µM (inactive)	30.8 µM (inactive)	11.2 µM (inactive)	30.5 µM (inactive)	> 50.5 µM (inactive)	10.2 µM (inactive)	> 34.2 µM (inactive)	8.87 µM (inactive)	45.1 µM (inactive)	17.3 µM (inactive)	36.2 µM (inactive)	18.5 µM (inactive)	10.4 µM (inactive)	> 54.6 µM (inactive)	23.4 µM (inactive)	12.5 µM (inactive)	> 32.7 µM (inactive)
CCCCCCCCCCCCCCCCCCNC(=O)OCC(CNS(=O)(=O)CCC[n+]1cccc2ccccc21)COC (stereo not given)	3.45 µM (inactive)	1.06 µM (active)	0.435 µM (active)	12.4 µM (inactive)	1.17 µM (inactive)	3.55 µM (inactive)	3.7 µM (inactive)	2.1 µM (inactive)	1.02 µM (active)	18.5 µM (inactive)	1.31 µM (inactive)	2.13 µM (inactive)	2.07 µM (inactive)	1.76 µM (inactive)	1.37 µM (inactive)	2.34 µM (inactive)	4.74 µM (inactive)	1.9 µM (inactive)	1.4 µM (inactive)	2.16 µM (inactive)
